What was measured:
[1] = test system: human peripheral blood monocytes; conditions: ref M. C. Pike and R. Snyderman. Unpublished observation; cited from earlier work
U937 cells = assay: Chemotaxis of U937 cells, modified Boyden chambers; type: cell-based, human; conditions: U937 cells cultured 48 h with lymphokines; Fig. 4
[2] = biological target: T1, N-formylated peptide receptor on U937 cells (Homo sapiens, UniProt P21462); assay: fMet-Leu-[3H]Phe-binding assay on U937 cells; conditions: U937 cells incubated with cytochalasin B
T1 sequence (P21462 1-350): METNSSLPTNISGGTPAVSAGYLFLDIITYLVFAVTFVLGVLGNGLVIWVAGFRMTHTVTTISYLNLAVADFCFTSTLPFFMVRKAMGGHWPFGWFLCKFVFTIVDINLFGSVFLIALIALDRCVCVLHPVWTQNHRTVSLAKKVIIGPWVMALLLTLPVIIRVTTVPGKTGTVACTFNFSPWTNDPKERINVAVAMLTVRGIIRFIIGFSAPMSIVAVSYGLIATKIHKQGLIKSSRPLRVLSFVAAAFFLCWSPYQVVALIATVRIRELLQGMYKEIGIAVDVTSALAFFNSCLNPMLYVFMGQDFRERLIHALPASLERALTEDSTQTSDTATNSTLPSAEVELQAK

Row | Compound | potency for human monocyte chemotaxis relative to fMet-Leu-Phe [1] | relative chemotactic potency (U937 cells) | effect on amount of fMet-Leu-[3H]Phe bound [2]
1 | N-formyl-norleucyl-leucyl-phenylalanine [fNle-Leu-Phe] | less than that of fMet-Leu-Phe | approximately equipotent | 
2 | C=C1[C@@H](C)[C@H]2[C@H](Cc3ccccc3)NC(=O)[C@]23OC(=O)/C=C/[C@H](O)CCC[C@@H](C)C/C=C/[C@H]3[C@@H]1O [cytochalasin B] |  |  | did not affect
3 | fMet-Met-Met [N-formyl-methionyl-methionyl-methionine] | less than that of fMet-Leu-Phe | approximately equipotent | 
